The kinase profiling compilation of Christmann-Franck et al. (2016)

Legend:
Test in all cases: KINOMEscan competition binding
Conditions in all cases: compound 1.0 µM
BTK (human) = BTK (human) (UniProt Q06187)
DYRK1A (human) = DYRK1A (human) (UniProt Q13627)
MLTK (human) = MLTK (human) (UniProt Q9NYL2)
HIPK4 (human) = HIPK4 (human) (UniProt Q8NE63)
PIK3CA (human) = PIK3CA (human) (UniProt P42336)
[1] = system: FLT3 (human), P36888 [R834Q]
RPS6KA5 KD1 (human) = RPS6KA5 KD1 (human) (UniProt O75582)
CSK (human) = CSK (human) (UniProt P41240)
BMX (human) = BMX (human) (UniProt P51813)
MAPK3 (human) = MAPK3 (human) (UniProt P27361)
SBK1 (human) = SBK1 (human) (UniProt Q52WX2)
CAMKK1 (human) = CAMKK1 (human) (UniProt Q8N5S9)
CDK5 (human) = CDK5 (human) (UniProt Q00535)
CDK11B (human) = CDK11B (human) (UniProt P21127)
[2] = system: KIT (human), P10721 [V559D/T670I]
EPHB1 (human) = EPHB1 (human) (UniProt P54762)
NIM1 (human) = NIM1 (human) (UniProt Q8IY84)
SYK (human) = SYK (human) (UniProt P43405)
[3] = system: PIK3CA (human), P42336 [M1043I]
KIT (human) = KIT (human) (UniProt P10721)
[4] = target: JAK2 JH1 catalytic (human) (UniProt O60674)
EIF2AK1 (human) = EIF2AK1 (human) (UniProt Q9BQI3)
PRKAA1 (human) = PRKAA1 (human) (UniProt Q13131)
MAP3K5 (human) = MAP3K5 (human) (UniProt Q99683)
MAPK11 (human) = MAPK11 (human) (UniProt Q15759)
[5] = system: MET (human), P08581 [M1250T]
TNNI3K (human) = TNNI3K (human) (UniProt Q59H18)
CSNK1G1 (human) = CSNK1G1 (human) (UniProt Q9HCP0)
PIK3CB (human) = PIK3CB (human) (UniProt P42338)
[6] = system: EGFR (human), P00533 [P753S; 747-752 del]
RIPK1 (human) = RIPK1 (human) (UniProt Q13546)
PI4KB (human) = PI4KB (human) (UniProt Q9UBF8)
EIF2AK2 (human) = EIF2AK2 (human) (UniProt P19525)
EPHB3 (human) = EPHB3 (human) (UniProt P54753)
TXK (human) = TXK (human) (UniProt P42681)
PLK4 (human) = PLK4 (human) (UniProt O00444)
MYLK3 (human) = MYLK3 (human) (UniProt Q32MK0)
MAPK7 (human) = MAPK7 (human) (UniProt Q13164)
SRC (human) = SRC (human) (UniProt P12931)
LATS1 (human) = LATS1 (human) (UniProt O95835)
CDKL1 (human) = CDKL1 (human) (UniProt Q00532)
LATS2 (human) = LATS2 (human) (UniProt Q9NRM7)
EPHA1 (human) = EPHA1 (human) (UniProt P21709)
EPHA1 (human), sequence (P21709 whole entry, looked up): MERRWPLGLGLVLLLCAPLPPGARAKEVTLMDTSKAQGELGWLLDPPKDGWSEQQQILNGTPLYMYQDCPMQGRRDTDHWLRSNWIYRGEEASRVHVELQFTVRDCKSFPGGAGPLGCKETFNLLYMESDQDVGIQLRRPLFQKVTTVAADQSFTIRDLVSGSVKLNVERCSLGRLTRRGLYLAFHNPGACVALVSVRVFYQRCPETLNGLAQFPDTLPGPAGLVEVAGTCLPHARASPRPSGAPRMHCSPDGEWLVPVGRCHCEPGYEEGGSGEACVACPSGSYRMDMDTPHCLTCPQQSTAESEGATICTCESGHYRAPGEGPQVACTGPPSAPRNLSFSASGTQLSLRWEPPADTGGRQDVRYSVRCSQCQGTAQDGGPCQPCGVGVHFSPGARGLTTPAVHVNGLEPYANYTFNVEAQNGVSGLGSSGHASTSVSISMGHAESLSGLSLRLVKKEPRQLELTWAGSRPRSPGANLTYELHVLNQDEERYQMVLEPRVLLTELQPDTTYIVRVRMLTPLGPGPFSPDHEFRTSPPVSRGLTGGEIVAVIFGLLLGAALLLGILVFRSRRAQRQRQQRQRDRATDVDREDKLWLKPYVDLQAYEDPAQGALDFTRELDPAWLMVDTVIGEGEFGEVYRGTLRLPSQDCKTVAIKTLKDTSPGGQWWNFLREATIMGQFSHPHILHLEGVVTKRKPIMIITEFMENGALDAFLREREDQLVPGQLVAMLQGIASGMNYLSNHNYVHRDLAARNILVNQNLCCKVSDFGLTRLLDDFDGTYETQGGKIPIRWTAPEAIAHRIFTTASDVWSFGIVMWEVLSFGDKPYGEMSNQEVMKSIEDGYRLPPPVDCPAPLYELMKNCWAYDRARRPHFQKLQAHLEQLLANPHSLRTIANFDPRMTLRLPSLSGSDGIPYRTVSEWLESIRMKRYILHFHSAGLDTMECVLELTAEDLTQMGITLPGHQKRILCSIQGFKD

SRC (human), sequence (P12931 whole entry, looked up): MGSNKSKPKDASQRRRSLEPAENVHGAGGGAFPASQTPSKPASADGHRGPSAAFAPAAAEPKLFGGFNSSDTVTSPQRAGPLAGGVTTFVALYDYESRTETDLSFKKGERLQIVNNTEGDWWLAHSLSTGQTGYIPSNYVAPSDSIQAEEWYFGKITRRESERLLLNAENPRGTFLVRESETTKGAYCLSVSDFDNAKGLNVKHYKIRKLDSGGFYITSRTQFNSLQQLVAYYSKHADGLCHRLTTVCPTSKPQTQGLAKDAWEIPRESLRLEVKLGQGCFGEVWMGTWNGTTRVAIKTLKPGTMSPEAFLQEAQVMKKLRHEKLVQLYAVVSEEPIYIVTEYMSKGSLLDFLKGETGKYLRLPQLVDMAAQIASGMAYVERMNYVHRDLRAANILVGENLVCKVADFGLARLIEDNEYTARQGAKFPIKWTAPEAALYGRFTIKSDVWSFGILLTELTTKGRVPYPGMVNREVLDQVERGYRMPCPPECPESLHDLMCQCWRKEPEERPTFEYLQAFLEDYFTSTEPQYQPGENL
MAPK11 (human), sequence (Q15759 whole entry, looked up): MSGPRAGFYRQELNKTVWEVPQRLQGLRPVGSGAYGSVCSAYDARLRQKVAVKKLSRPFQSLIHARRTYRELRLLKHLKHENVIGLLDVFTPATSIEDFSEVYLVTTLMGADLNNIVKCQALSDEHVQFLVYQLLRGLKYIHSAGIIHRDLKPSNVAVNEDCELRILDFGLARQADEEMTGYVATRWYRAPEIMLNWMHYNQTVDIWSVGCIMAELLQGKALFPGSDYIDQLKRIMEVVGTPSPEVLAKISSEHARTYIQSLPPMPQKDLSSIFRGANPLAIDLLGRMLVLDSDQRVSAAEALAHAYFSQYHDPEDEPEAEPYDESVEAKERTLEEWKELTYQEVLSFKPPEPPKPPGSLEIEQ
CAMKK1 (human), sequence (Q8N5S9 whole entry, looked up): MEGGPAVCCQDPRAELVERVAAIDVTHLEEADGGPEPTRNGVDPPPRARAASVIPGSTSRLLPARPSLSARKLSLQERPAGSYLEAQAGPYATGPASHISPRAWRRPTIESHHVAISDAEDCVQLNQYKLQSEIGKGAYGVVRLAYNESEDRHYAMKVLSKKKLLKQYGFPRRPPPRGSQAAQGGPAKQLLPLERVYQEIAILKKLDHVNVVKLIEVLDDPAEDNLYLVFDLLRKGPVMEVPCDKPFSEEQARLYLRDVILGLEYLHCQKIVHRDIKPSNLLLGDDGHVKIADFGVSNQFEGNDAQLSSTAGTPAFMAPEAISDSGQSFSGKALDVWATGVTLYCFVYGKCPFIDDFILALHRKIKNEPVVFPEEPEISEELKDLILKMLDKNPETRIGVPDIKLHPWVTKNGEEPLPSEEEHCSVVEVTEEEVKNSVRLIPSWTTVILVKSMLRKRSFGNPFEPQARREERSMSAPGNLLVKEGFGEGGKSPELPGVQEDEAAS
PI4KB (human), sequence (Q9UBF8 whole entry, looked up): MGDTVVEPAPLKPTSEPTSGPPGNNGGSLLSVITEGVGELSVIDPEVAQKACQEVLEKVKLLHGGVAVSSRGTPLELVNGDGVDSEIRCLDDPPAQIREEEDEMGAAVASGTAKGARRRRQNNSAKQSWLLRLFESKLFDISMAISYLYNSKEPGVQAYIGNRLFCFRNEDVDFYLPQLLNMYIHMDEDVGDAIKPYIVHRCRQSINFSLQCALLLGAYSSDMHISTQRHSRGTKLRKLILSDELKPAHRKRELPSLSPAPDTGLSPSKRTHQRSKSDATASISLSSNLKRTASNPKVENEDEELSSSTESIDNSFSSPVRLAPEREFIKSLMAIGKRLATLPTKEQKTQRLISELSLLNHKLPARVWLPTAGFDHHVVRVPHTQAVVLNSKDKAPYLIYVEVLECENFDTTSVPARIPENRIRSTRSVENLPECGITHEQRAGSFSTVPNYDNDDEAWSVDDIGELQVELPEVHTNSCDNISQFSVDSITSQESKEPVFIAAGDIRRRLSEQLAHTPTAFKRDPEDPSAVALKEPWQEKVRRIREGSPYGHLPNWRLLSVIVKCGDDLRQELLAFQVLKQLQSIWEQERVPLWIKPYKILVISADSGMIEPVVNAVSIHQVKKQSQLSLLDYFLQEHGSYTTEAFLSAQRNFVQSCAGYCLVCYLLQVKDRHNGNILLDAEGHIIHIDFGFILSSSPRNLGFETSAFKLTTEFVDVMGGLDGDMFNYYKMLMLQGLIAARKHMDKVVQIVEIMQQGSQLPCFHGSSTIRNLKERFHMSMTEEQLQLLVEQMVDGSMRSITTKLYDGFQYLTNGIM
RPS6KA5 KD1 (human), sequence (O75582 whole entry, looked up): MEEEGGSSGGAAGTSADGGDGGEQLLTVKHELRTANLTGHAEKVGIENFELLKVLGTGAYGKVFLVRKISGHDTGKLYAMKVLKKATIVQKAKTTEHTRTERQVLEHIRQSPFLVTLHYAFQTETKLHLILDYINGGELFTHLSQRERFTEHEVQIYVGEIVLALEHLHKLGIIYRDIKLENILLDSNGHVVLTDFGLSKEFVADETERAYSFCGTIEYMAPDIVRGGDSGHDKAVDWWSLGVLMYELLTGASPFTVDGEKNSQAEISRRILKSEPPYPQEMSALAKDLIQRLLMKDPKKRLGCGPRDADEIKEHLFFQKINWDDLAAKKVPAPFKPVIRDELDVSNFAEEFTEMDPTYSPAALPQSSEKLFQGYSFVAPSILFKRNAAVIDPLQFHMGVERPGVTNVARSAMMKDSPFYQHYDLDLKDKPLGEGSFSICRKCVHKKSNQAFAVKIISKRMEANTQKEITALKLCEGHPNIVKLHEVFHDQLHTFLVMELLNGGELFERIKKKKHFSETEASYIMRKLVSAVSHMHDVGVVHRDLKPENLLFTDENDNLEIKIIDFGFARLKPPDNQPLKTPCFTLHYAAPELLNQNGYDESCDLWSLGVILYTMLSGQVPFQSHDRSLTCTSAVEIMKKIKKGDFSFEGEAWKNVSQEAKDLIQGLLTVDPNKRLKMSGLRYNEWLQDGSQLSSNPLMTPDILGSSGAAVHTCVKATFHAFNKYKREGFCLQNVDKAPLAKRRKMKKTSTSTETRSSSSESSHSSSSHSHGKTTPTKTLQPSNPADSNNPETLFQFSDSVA
KIT (human), P10721 [V559D/T670I], sequence (P10721 whole entry V559D/T670I, looked up): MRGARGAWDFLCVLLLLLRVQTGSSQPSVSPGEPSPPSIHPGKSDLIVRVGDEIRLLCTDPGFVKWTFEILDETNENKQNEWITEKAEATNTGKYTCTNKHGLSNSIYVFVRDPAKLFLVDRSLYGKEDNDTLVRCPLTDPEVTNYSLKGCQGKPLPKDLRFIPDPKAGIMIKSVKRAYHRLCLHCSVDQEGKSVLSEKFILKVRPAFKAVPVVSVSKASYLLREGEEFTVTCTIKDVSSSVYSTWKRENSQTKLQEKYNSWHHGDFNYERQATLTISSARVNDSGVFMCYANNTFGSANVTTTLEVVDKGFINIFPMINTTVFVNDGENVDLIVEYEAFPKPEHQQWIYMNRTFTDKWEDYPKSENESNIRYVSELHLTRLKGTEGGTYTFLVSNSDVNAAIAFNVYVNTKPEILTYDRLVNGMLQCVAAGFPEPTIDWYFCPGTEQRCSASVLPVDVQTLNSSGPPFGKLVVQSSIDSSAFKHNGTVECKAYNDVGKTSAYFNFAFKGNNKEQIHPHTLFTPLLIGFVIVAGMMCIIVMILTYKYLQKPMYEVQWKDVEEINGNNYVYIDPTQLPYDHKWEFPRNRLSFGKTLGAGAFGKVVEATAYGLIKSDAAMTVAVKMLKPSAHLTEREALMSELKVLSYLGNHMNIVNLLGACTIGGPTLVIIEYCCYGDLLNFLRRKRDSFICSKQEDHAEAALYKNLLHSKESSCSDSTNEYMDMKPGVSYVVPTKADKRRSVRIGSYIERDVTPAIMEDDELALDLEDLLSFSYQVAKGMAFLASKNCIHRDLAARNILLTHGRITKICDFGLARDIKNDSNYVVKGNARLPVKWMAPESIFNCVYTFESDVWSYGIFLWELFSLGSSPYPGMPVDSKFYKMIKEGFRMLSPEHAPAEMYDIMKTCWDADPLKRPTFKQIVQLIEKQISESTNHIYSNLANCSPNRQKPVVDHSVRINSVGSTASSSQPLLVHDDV
KIT (human), sequence (P10721 whole entry, looked up): as the sequence (P10721 whole entry V559D/T670I, looked up) above, with D559V, I670T counted along it

**Q.** Which kinase still bound, per cent of control (BTK (human)) does the source give for `COCCNCCCn1c(C(=O)CF)c(-c2ccc(C)cc2)c2c(N)ncnc21` here?
**A.** Its kinase still bound, per cent of control is 87%.

**Q.** What about the kinase still bound, per cent of control (DYRK1A (human)) of the same compound?
**A.** Its kinase still bound, per cent of control is 100%.

**Q.** What about the kinase still bound, per cent of control (MLTK (human)) of the same compound?
**A.** The kinase still bound, per cent of control was 100%.

**Q.** What about the kinase still bound, per cent of control (HIPK4 (human)) of the same compound?
**A.** Its kinase still bound, per cent of control is 95%.

**Q.** What about the kinase still bound, per cent of control (PIK3CA (human)) of the same compound?
**A.** Its kinase still bound, per cent of control is 100%.

**Q.** What about the kinase still bound, per cent of control [1] of the same compound?
**A.** Its kinase still bound, per cent of control is 96%.

**Q.** What about the kinase still bound, per cent of control (RPS6KA5 KD1 (human)) of the same compound?
**A.** Its kinase still bound, per cent of control is 79%.

**Q.** What about the kinase still bound, per cent of control (CSK (human)) of the same compound?
**A.** Its kinase still bound, per cent of control is 95%.

**Q.** What about the kinase still bound, per cent of control (BMX (human)) of the same compound?
**A.** The kinase still bound, per cent of control was 98%.

**Q.** What about the kinase still bound, per cent of control (MAPK3 (human)) of the same compound?
**A.** The kinase still bound, per cent of control was 98%.

**Q.** And the kinase still bound, per cent of control (SBK1 (human))?
**A.** The kinase still bound, per cent of control was 98%.

**Q.** What about the kinase still bound, per cent of control (CAMKK1 (human)) of the same compound?
**A.** Its kinase still bound, per cent of control is 100%.

**Q.** What about the kinase still bound, per cent of control (CDK5 (human)) of the same compound?
**A.** The kinase still bound, per cent of control was 95%.

**Q.** What about the kinase still bound, per cent of control (CDK11B (human)) of the same compound?
**A.** Its kinase still bound, per cent of control is 100%.

**Q.** And the kinase still bound, per cent of control [2]?
**A.** Its kinase still bound, per cent of control is 86%.

**Q.** What about the kinase still bound, per cent of control (EPHB1 (human)) of the same compound?
**A.** The kinase still bound, per cent of control was 94%.

**Q.** And the kinase still bound, per cent of control (NIM1 (human))?
**A.** Its kinase still bound, per cent of control is 100%.

**Q.** What about the kinase still bound, per cent of control (SYK (human)) of the same compound?
**A.** Its kinase still bound, per cent of control is 96%.

**Q.** What about the kinase still bound, per cent of control [3] of the same compound?
**A.** The kinase still bound, per cent of control was 100%.

**Q.** What about the kinase still bound, per cent of control (KIT (human)) of the same compound?
**A.** The kinase still bound, per cent of control was 77%.

**Q.** And the kinase still bound, per cent of control [4]?
**A.** Its kinase still bound, per cent of control is 100%.

**Q.** What about the kinase still bound, per cent of control (EIF2AK1 (human)) of the same compound?
**A.** Its kinase still bound, per cent of control is 100%.

**Q.** And the kinase still bound, per cent of control (PRKAA1 (human))?
**A.** Its kinase still bound, per cent of control is 100%.

**Q.** What about the kinase still bound, per cent of control (MAP3K5 (human)) of the same compound?
**A.** The kinase still bound, per cent of control was 100%.

**Q.** And the kinase still bound, per cent of control (MAPK11 (human))?
**A.** The kinase still bound, per cent of control was 90%.

**Q.** What about the kinase still bound, per cent of control [5] of the same compound?
**A.** Its kinase still bound, per cent of control is 95%.

**Q.** What about the kinase still bound, per cent of control (TNNI3K (human)) of the same compound?
**A.** Its kinase still bound, per cent of control is 89%.

**Q.** And the kinase still bound, per cent of control (CSNK1G1 (human))?
**A.** Its kinase still bound, per cent of control is 91%.

**Q.** And the kinase still bound, per cent of control (PIK3CB (human))?
**A.** The kinase still bound, per cent of control was 89%.

**Q.** And the kinase still bound, per cent of control [6]?
**A.** The kinase still bound, per cent of control was 100%.

**Q.** What about the kinase still bound, per cent of control (RIPK1 (human)) of the same compound?
**A.** The kinase still bound, per cent of control was 100%.

**Q.** And the kinase still bound, per cent of control (PI4KB (human))?
**A.** The kinase still bound, per cent of control was 100%.

**Q.** What about the kinase still bound, per cent of control (EIF2AK2 (human)) of the same compound?
**A.** The kinase still bound, per cent of control was 90%.

**Q.** And the kinase still bound, per cent of control (EPHB3 (human))?
**A.** Its kinase still bound, per cent of control is 100%.

**Q.** What about the kinase still bound, per cent of control (TXK (human)) of the same compound?
**A.** The kinase still bound, per cent of control was 100%.

**Q.** And the kinase still bound, per cent of control (PLK4 (human))?
**A.** Its kinase still bound, per cent of control is 100%.

**Q.** And the kinase still bound, per cent of control (MYLK3 (human))?
**A.** The kinase still bound, per cent of control was 96%.

**Q.** What about the kinase still bound, per cent of control (MAPK7 (human)) of the same compound?
**A.** The kinase still bound, per cent of control was 100%.

**Q.** What about the kinase still bound, per cent of control (SRC (human)) of the same compound?
**A.** Its kinase still bound, per cent of control is 98%.

**Q.** And the kinase still bound, per cent of control (LATS1 (human))?
**A.** Its kinase still bound, per cent of control is 100%.

**Q.** What about the kinase still bound, per cent of control (CDKL1 (human)) of the same compound?
**A.** Its kinase still bound, per cent of control is 100%.

**Q.** What about the kinase still bound, per cent of control (LATS2 (human)) of the same compound?
**A.** Its kinase still bound, per cent of control is 100%.

**Q.** And the kinase still bound, per cent of control (EPHA1 (human))?
**A.** Its kinase still bound, per cent of control is 94%.
